From patent US20200140812A1, “NOVEL METHODS FOR THE GENERATION AND USE OF HUMAN INDUCED NEURAL BORDER STEM CELLS” (HI-STEM gGmbH, priority 2017, published 2020)

What was measured:
P2RX3-receptors = target: T1, P2RX3-receptors (Homo sapiens, UniProt P56373); test: Calcium flux measurements (Fluo-3 AM) in iNBSC-derived sensory neurons; type: cell-based
T1 construct: endogenous in cells; host or cells: sensory neurons differentiated from human iNBSCs (WT and SCN9a-/- cultures)
T1 sequence (P56373 1-397): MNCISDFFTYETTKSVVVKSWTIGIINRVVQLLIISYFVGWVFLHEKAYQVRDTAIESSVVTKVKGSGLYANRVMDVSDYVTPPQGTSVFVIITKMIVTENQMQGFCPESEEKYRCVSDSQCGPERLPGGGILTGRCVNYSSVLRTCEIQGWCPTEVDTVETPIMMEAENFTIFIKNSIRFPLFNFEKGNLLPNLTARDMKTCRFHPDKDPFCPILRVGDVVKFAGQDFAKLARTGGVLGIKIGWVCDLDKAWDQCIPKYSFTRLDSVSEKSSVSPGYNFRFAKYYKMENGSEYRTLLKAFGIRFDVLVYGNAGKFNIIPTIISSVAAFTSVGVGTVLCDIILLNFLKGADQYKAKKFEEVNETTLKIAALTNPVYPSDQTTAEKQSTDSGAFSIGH
Experimental: Cell cultures were incubated in a solution containing the cell-permeable fluorescent Ca2+ indicator Fluo-3 AM (2 μM; F1242, Thermo Scientific™) and Cell Tracker Red CMTPX (1 μM; C34552, Thermo Scientific™) to delineate cell membranes. Dye loading was carried out in an incubator at 37° C., 5% CO2 for 30 min.
Imaging of fluorescently labeled cells was performed on a TCS SP5 microscope (Leica) equipped with a 20×(1 numerical aperture) water-immersion objective. Images (512×512 pixels) were acquired at 1000 Hz speed every 0.8-1.6 seconds with 0.5 μm per pixel resolution in the xy dimension, and 3-4 μm steps in the z dimension. Argon and HeNe-543 lasers were used to excite Fluo-3 AM and Cell Tracker Red CMTPX dyes, respectively. […] After recording baseline fluorescence for 2 minutes, α,β-methylene ATP was applied (30 μM in ACSF; COMPANY) for 2 minutes. […]
We obtained relative fluorescence changes (Fi/F0), where F0 is the fluorescence image formed by averaging the first 50 frames of the sequence, and F(i) represents each (i) frame of the recording. […]
We then studied global calcium activity by averaging fluorescence intensity in the whole image before and in response to stimulation with α,β-methylene ATP in WT−(n=3) and SCN9−/− (n=4) neuronal cultures.

pNBSCs = test: Culture of pNBSCs on Matrigel in absence of feeders with Notch-ligands; type: cell-based, mouse; conditions: cultured on MG with DII4 and Jagged1 together, 500 ng/ml each
Experimental: a, Preparation of E8.5 stage embryos for isolation of pNBSCs. Representative microscopy pictures of an E8.5 stage embryo prior to dissection of neural tissue. […] Results are shown for two independent pNBSC clones and E13.5 stage derived RG-like SCs (n=3; t-test, **P<0.01, Mean with SEM). g, Culture of pNBSCs on inactivated MEFs (feeder) or Matrigel in presence or absence of Notch-ligands 500 ng/ml DII4 and 500 ng/ml Jagged-1. h, Regional identity of pNBSCs. mRNA expression of region specific markers was determined in three independent pNBSCs lines. Expression was normalized to whole E13.5 stage fetal brains. i, Flow cytometry data of a pNBSC line under maintenance and neural crest priming condition. pNBSCs were either cultured in CAP or CA+BMP4 for 5 days before levels of Ssea1 and P75 were determined by flow cytometry. j, Immunofluorescence stainings for serotonin on neuronal differentiation. pNBSCs were differentiated in presence of Purmorphamine for 3 days and matured for additional 2 weeks before stainings were performed; scale bar 50 μm. k, BF pictures of pNBSCs embedded as single cell suspension in MG after CNS- and NC-priming. pNBSCs were cultured in CSP for 6 days (upper panel) or CABF for 10 days (lower panel). […]

| Compound | rapid differentiation of pNBSCs in the absence of feeders (pNBSCs) | further results |
| --- | --- | --- |
| O=C(O)c1cc(C(=O)O)c(C(=O)N(Cc2cccc(Oc3ccccc3)c2)[C@H]2CCCc3ccccc32)cc1C(=O)O [A-317491] |  | α,β-Methylene-ATP-induced calcium flux (neuronal activity) in the presence of antagonist (P2RX3-receptors; 1 μM A-317491, stimulation with 30 μM α,β-methylene ATP, WT sensory neurons, compared to controls, t-test P<0.05): significantly reduced |
| Nc1ncnc2c1ncn2[C@@H]1O[C@H](COP(=O)(O)CP(=O)(O)OP(=O)(O)O)[C@@H](O)[C@H]1O [α,β-Methylene-ATP] |  | neuronal activity by calcium flux measurements upon stimulation (P2RX3-receptors; 30 μM α,β-methylene ATP, WT iNBSC-derived sensory neurons, Fluo-3 AM fluorescence relative to baseline): robust increase of activity |
| DII4: Notch-ligand | partially halted |  |
| Jagged1: Notch-ligand | partially halted |  |
